Assays:
Type in all cases: in vivo
Kochia (Kochia scoparia) [1] = assay: Test A postemergence; conditions: Bassia scoparia, post-emergence, 240 h, Postemergence, read-out: Kochia plant response rating (0 to 100 scale); for pest or weed control at 125 g/ha: 125 g ai/ha, visual rating about 10 d after treatment; for pest or weed control at 31 g/ha: 31 g ai/ha, 0 is no effect, 100 is complete control
How it was run: (§1)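 Preemergence directed soil spray on seeded pots, or postemergence application to plants 2–10 cm, one- to two-leaf. Solvent mixture non-phytotoxic, with surfactant. Scored ~10 d later, visually, 0–100 vs untreated.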

[2] = system: blackgrass (Alopecurus myosuroides); assay: Test A postemergence; conditions: Alopecurus myosuroides, post-emergence, 240 h, Postemergence, read-out: Blackgrass plant response rating (0 to 100 scale); for pest or weed control at 125 g/ha: 125 g ai/ha, visual rating about 10 d after treatment; for pest or weed control at 31 g/ha: 31 g ai/ha, 0 is no effect, 100 is complete control
How it was run: as §1

[3] = system: pigweed (Amaranthus retroflexus); assay: Test A postemergence; conditions: Amaranthus retroflexus, post-emergence, 240 h, Postemergence, read-out: Pigweed plant response rating (0 to 100 scale); for pest or weed control at 125 g/ha: 125 g ai/ha, visual rating about 10 d after treatment; for pest or weed control at 31 g/ha: 31 g ai/ha, 0 is no effect, 100 is complete control
How it was run: as §1

[4] = system: ryegrass, Italian (Italian ryegrass, Lolium multiflorum); assay: Test A postemergence; conditions: Lolium multiflorum, post-emergence, 240 h, Postemergence, read-out: Ryegrass, Italian plant response rating (0 to 100 scale); for pest or weed control at 125 g/ha: 125 g ai/ha, visual rating about 10 d after treatment; for pest or weed control at 31 g/ha: 31 g ai/ha, 0 is no effect, 100 is complete control
How it was run: as §1

corn (Zea mays) = assay: Test A postemergence; conditions: Zea mays, post-emergence, 240 h, Postemergence, read-out: Corn plant response rating (0 to 100 scale); for plant injury at 125 g/ha: 125 g ai/ha, visual rating about 10 d after treatment; for plant injury at 31 g/ha: 31 g ai/ha, 0 is no effect, 100 is complete control
How it was run: as §1

[5] = system: barnyardgrass (Echinochloa crus-galli); assay: Test A postemergence; conditions: Echinochloa crus-galli, post-emergence, 240 h, Postemergence; for pest or weed control at 125 g/ha: 125 g ai/ha, visual rating about 10 d after treatment, read-out: Barnyardgrass plant response rating (0 to 100 scale, 0 no effect, 100 complete control); for pest or weed control at 31 g/ha: 31 g ai/ha, 0 is no effect, 100 is complete control, read-out: Barnyardgrass plant response rating (0 to 100 scale)
How it was run: as §1

[6] = system: ragweed (common ragweed, Ambrosia elatior); assay: Test A postemergence; conditions: Ambrosia artemisiifolia, post-emergence, 240 h, Postemergence, read-out: Ragweed plant response rating (0 to 100 scale); for pest or weed control at 125 g/ha: 125 g ai/ha, visual rating about 10 d after treatment; for pest or weed control at 31 g/ha: 31 g ai/ha, 0 is no effect, 100 is complete control
How it was run: as §1

[7] = system: giant foxtail (Setaria faberii); assay: Test A postemergence; conditions: Setaria faberi, post-emergence, 240 h, Postemergence, read-out: Foxtail, Giant plant response rating (0 to 100 scale); for pest or weed control at 125 g/ha: 125 g ai/ha, visual rating about 10 d after treatment; for pest or weed control at 31 g/ha: 31 g ai/ha, 0 is no effect, 100 is complete control
How it was run: as §1

[8] = system: wheat (Triticum aestivum); assay: Test A postemergence; conditions: Triticum aestivum, post-emergence, 240 h, Postemergence, read-out: Wheat plant response rating (0 to 100 scale); for plant injury at 125 g/ha: 125 g ai/ha, visual rating about 10 d after treatment; for plant injury at 31 g/ha: 31 g ai/ha, 0 is no effect, 100 is complete control
How it was run: as §1

[9] = system: Galium (catchweed bedstraw, Galium aparine); assay: Test A postemergence; conditions: Galium, post-emergence, 240 h, Postemergence, read-out: Galium plant response rating (0 to 100 scale); for pest or weed control at 125 g/ha: 125 g ai/ha, visual rating about 10 d after treatment; for pest or weed control at 31 g/ha: 31 g ai/ha, 0 is no effect, 100 is complete control
How it was run: as §1

[10] = system: sedge, umbrella (small-flower umbrella sedge, Cyperus difformis); assay: Test B flooded paddy test; conditions: Cyperus difformis, 250 g ai/ha, Flood; 0 to 100 scale where 0 is no effect and 100 is complete control; read-out: Sedge, Umbrella plant response rating
How it was run: (§2)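 Evaluation by eye, against controls, occurred 13–15 d post-treatment in a greenhouse, using a 0 (no effect) to 100 (complete control) scale. Application was into the paddy water, 3 cm deep over the soil, on 2-leaf plants.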

[11] = system: ducksalad (Heteranthera limosa); assay: Test B flooded paddy test; conditions: Heteranthera limosa, 250 g ai/ha, Flood; 0 to 100 scale where 0 is no effect and 100 is complete control; read-out: Ducksalad plant response rating
How it was run: as §2

[12] = system: barnyardgrass (Echinochloa crus-galli); assay: Test B flooded paddy test; conditions: Echinochloa crus-galli, 250 g ai/ha, Flood; 0 to 100 scale where 0 is no effect and 100 is complete control; read-out: Barnyardgrass plant response rating
How it was run: as §2

rice (Oryra sativa) = assay: Test B flooded paddy test; conditions: Oryza sativa, 250 g ai/ha, Flood; 0 to 100 scale where 0 is no effect and 100 is complete control; read-out: Rice plant response rating
How it was run: as §2

Kochia (Kochia scoparia) [13] = assay: Test A preemergence; conditions: Bassia scoparia, pre-emergence, 240 h, 0 to 100 scale where 0 is no effect and 100 is complete control, read-out: Kochia plant response rating; for pest or weed control at 31 g/ha: 31 g ai/ha, Preemergence; for pest or weed control at 125 g/ha: 125 g ai/ha, preemergence, visual injury rating, approximately 10 d
How it was run: as §1

[14] = system: pigweed (Amaranthus retroflexus); assay: Test A preemergence; conditions: Amaranthus retroflexus, pre-emergence, 240 h, 0 to 100 scale where 0 is no effect and 100 is complete control, read-out: Pigweed plant response rating; for pest or weed control at 31 g/ha: 31 g ai/ha, Preemergence; for pest or weed control at 125 g/ha: 125 g ai/ha, preemergence, visual injury rating, approximately 10 d
[15] = system: ryegrass, Italian (Italian ryegrass, Lolium multiflorum); assay: Test A preemergence; conditions: Lolium multiflorum, pre-emergence, 240 h, 0 to 100 scale where 0 is no effect and 100 is complete control, read-out: Ryegrass, Italian plant response rating; for pest or weed control at 31 g/ha: 31 g ai/ha, Preemergence; for pest or weed control at 125 g/ha: 125 g ai/ha, preemergence, visual injury rating, approximately 10 d
How it was run: as §1

[16] = system: barnyardgrass (Echinochloa crus-galli); assay: Test A preemergence; conditions: Echinochloa crus-galli, pre-emergence, 240 h, 0 to 100 scale where 0 is no effect and 100 is complete control, read-out: Barnyardgrass plant response rating; for pest or weed control at 31 g/ha: 31 g ai/ha, Preemergence; for pest or weed control at 125 g/ha: 125 g ai/ha, preemergence, visual injury rating, approximately 10 d
How it was run: as §1

[17] = system: ragweed (common ragweed, Ambrosia elatior); assay: Test A preemergence; conditions: Ambrosia artemisiifolia, pre-emergence, 240 h, 0 to 100 scale where 0 is no effect and 100 is complete control, read-out: Ragweed plant response rating; for pest or weed control at 31 g/ha: 31 g ai/ha, Preemergence; for pest or weed control at 125 g/ha: 125 g ai/ha, preemergence, visual injury rating, approximately 10 d
How it was run: as §1

[18] = system: giant foxtail (Setaria faberii); assay: Test A preemergence; conditions: Setaria faberi, pre-emergence, 240 h, 0 to 100 scale where 0 is no effect and 100 is complete control, read-out: Foxtail, Giant plant response rating; for pest or weed control at 31 g/ha: 31 g ai/ha, Preemergence; for pest or weed control at 125 g/ha: 125 g ai/ha, preemergence, visual injury rating, approximately 10 d
How it was run: as §1

SMILES	pest or weed control at 125 g/ha (Kochia (Kochia scoparia) [1]) [%]	pest or weed control at 31 g/ha (Kochia (Kochia scoparia) [1]) [%]	pest or weed control at 125 g/ha [2] [%]	pest or weed control at 31 g/ha [2] [%]	pest or weed control at 125 g/ha [3] [%]	pest or weed control at 31 g/ha [3] [%]	pest or weed control at 125 g/ha [4] [%]	pest or weed control at 31 g/ha [4] [%]	plant injury at 125 g/ha (corn (Zea mays)) [%]	plant injury at 31 g/ha (corn (Zea mays)) [%]	pest or weed control at 125 g/ha [5] [%]	pest or weed control at 31 g/ha [5] [%]	pest or weed control at 125 g/ha [6] [%]	pest or weed control at 31 g/ha [6] [%]	pest or weed control at 125 g/ha [7] [%]	pest or weed control at 31 g/ha [7] [%]	plant injury at 125 g/ha [8] [%]	plant injury at 31 g/ha [8] [%]	pest or weed control at 125 g/ha [9] [%]	pest or weed control at 31 g/ha [9] [%]	also measured
CN1C[C@H](c2ccccc2)[C@@H](C(=O)Nc2cccc(F)c2F)C1=O [Compound 1282]	60	0	0	0	20	0	40	0	30	0	100	90	40	0	80	80	50	0	70	40	pest or weed control at 250 g/ha [10]: 0%; pest or weed control at 250 g/ha [11]: 100%; pest or weed control at 250 g/ha [12]: 90%; pest or weed control at 250 g/ha (rice (Oryra sativa)): 30%; pest or weed control at 31 g/ha (Kochia (Kochia scoparia) [13]): 30%; pest or weed control at 125 g/ha (Kochia (Kochia scoparia) [13]): 70%; pest or weed control at 31 g/ha [14]: 60%; pest or weed control at 125 g/ha [14]: 80%; pest or weed control at 31 g/ha [15]: 30%; pest or weed control at 125 g/ha [15]: 70%; pest or weed control at 31 g/ha [16]: 100%; pest or weed control at 125 g/ha [16]: 100%; pest or weed control at 31 g/ha [17]: 0%; pest or weed control at 125 g/ha [17]: 90%; pest or weed control at 31 g/ha [18]: 100%; pest or weed control at 125 g/ha [18]: 100%
CN1C[C@H](c2cccc(C(F)(F)F)c2)[C@@H](C(=O)Nc2ccccc2-n2cccn2)C1=O [Compound 1284]	0	0	0	0	0	0	0	0	0	0	0	0	0	0	0	0	0	0	0	0	pest or weed control at 250 g/ha [10]: 0%; pest or weed control at 250 g/ha [11]: 0%; pest or weed control at 250 g/ha [12]: 0%; pest or weed control at 250 g/ha (rice (Oryra sativa)): 0%; pest or weed control at 31 g/ha (Kochia (Kochia scoparia) [13]): 0%; pest or weed control at 125 g/ha (Kochia (Kochia scoparia) [13]): 0%; pest or weed control at 31 g/ha [14]: 0%; pest or weed control at 125 g/ha [14]: 0%; pest or weed control at 31 g/ha [15]: 0%; pest or weed control at 125 g/ha [15]: 0%; pest or weed control at 31 g/ha [16]: 0%; pest or weed control at 125 g/ha [16]: 0%; pest or weed control at 31 g/ha [17]: 0%; pest or weed control at 125 g/ha [17]: 0%; pest or weed control at 31 g/ha [18]: 0%; pest or weed control at 125 g/ha [18]: 0%

Source: patent US12077503B2, “Substituted cyclic amides and their use as herbicides” (FMC CORPORATION, priority 2015, dated 2024)
